What was measured:
[1] = Antioxidant activity assessed as suppression of lipid peroxidation at 5 uM relative to control; assay type: functional
[2] = Antioxidant activity assessed as suppression of lipid peroxidation at 1 uM relative to control; assay type: functional
[3] = Inhibition of NADH oxidase (unknown origin) at 5 uM relative to control; details: Homo sapiens
[4] = Inhibition of NADH oxidase (unknown origin) at 1 uM relative to control; details: Homo sapiens

inhibition [3] [%] | inhibition [4] [%] | SMILES | Activity [1] [%] | Activity [2] [%]
– | – | CCCCCCCCCCc1c(C)n(O)c(C)c(Cl)c1=O | 0 | 0
20.7 | 29.7 | C=Cc1c(C)n(O)c(C)c(CCCCCCC)c1=O | 0 | 0
– | – | CCCCCCCc1c(C)n(O)c(C)c(Br)c1=O | 0 | 0
– | – | CCCCCCCc1c(C)n(O)c(C)c(Cl)c1=O | 0 | 0
– | – | CCCCCCCCCCCCCCCCc1c(C)n(O)c(C)cc1=O | 20 | 10
44.5 | 74.5 | CCCCCCCc1c(C)n(O)c(C)c(C(C)=O)c1=O | 2.2 | 11
– | – | CCCCCCCCCCc1c(C)n(O)c(C)c(Br)c1=O | 0 | 0
12.7 | 17.1 | CCCCCCCCCCCCCCCCc1c(C)n(O)c(C)c(N)c1=O | 94 | 18
– | – | CCCCCCCc1c(C)n(O)c(C)cc1=O | 0 | 0
76.7 | 92.9 | CCCCCCCc1c(C)n(O)c(C)c(N)c1=O | 9.6 | 14
12 | 20.1 | C=Cc1c(C)n(O)c(C)c(CCCCCCCCCCCCCCCC)c1=O | 13 | 7
– | – | CCCCCCCCCCCCCCCCc1c(C)n(O)c(C)c(Br)c1=O | 15 | 7
– | – | CCCCCCCCCCc1c(C)n(O)c(C)cc1=O | 0 | 0
